The source of these data is ChEMBL document CHEMBL1128155, “Synthesis and structure-activity relationships of 2-(R) and (S) pyrrolidine-modified analogs of the cholinergic channel activator, ABT-418” (Bioorg Med Chem Lett, 1995).

Molecules are shown by their SMILES. pKi: −log10 of the molar value. “And” between values parts separate entries of the source, which are not always exact repeats. Equal entries are not always repeated.

Usually pKi stands for the negative decadic logarithm of the Ki, by convention in mol/L.

The assay in a line: Displacement of [3H](-)-cytisine from rat brain nicotinic acetylcholine receptors (nAChR). On the technique in general: In a radioligand displacement assay an active substance lowers the binding of a labelled ligand.
In turn, `Cc1cc([C@@H]2C[C@@H](CF)CN2C)on1` showed a pKi of 6.81. Take `Cc1cc([C@@H]2C[C@H](CF)CN2C)on1`: the pKi is 5.77. `Cc1cc([C@H]2C[C@H](C)CN2C)on1` showed a pKi of 6.02. This pKi lies 0.25 log units higher than the previous one.

`Cc1cc([C@H]2C[C@H](CF)CN2C)on1` gave a pKi of 4.77. Against the preceding compound, the pKi is 1.25 log units lower. In the case of `Cc1cc([C@@H]2C[C@H](CO)CN2C)on1` (single isomer, unassigned) it was 5.09. In the case of `Cc1cc([C@@H]2C[C@@H](C)CN2C)on1` it was 7.72; in that of `Cc1cc([C@@H]2C[C@@H](CO)CN2C)on1`, 5.18; in that of `Cc1cc([C@H]2CCCN2C)on1`, 8.13. Take `Cc1cc([C@@H]2CCCN2C)on1` [ABT-418]: the pKi was 8.52. Turning to `Cc1cc([C@H]2C[C@H](CO)CN2C)on1`, the pKi was 5.22. This pKi is 3.30 log units lower than that of the compound before. As for `Cc1cc([C@H]2CC[C@H](C)N2C)on1`, the pKi is 7.15 and 6.78. To `Cc1cc([C@H]2C[C@@H](CO)CN2C)on1` belongs 4.96.
